{
  "source": "ChEMBL document CHEMBL1201862",
  "about": "“PubChem BioAssay data set” (2004)",
  "experiment_in_all_cases": "growth of human tumour cells (NCI), 48 h",
  "key": {"HCC 2998": {"tested_on": "HCC 2998"}, "NCI-H23": {"tested_on": "NCI-H23"}, "CCRF-CEM": {"tested_on": "CCRF-CEM"}, "RXF 393": {"tested_on": "RXF 393"}, "OVCAR-5": {"tested_on": "OVCAR-5"}, "SNB-19": {"tested_on": "SNB-19"}, "MDA-N": {"tested_on": "MDA-N"}, "IGROV-1": {"tested_on": "IGROV-1"}, "KM12": {"tested_on": "KM12"}, "UO-31": {"tested_on": "UO-31"}, "HT-29": {"tested_on": "HT-29"}, "SF-268": {"tested_on": "SF-268"}, "A498": {"tested_on": "A498"}, "SF-295": {"tested_on": "SF-295"}, "T47D": {"tested_on": "T47D"}, "OVCAR-3": {"tested_on": "OVCAR-3"}, "SK-MEL-5": {"tested_on": "SK-MEL-5"}, "HCT-15": {"tested_on": "HCT-15"}, "COLO 205": {"tested_on": "COLO 205"}, "Hs-578T": {"tested_on": "Hs-578T"}, "PC-3": {"tested_on": "PC-3"}, "RPMI-8226": {"tested_on": "RPMI-8226"}, "SK-OV-3": {"tested_on": "SK-OV-3"}, "MOLT-4": {"tested_on": "MOLT-4"}, "EKVX": {"tested_on": "EKVX"}, "DU-145": {"tested_on": "DU-145"}, "U-251": {"tested_on": "U-251"}, "MDA-MB-231": {"tested_on": "MDA-MB-231"}, "MDA-MB-435": {"tested_on": "MDA-MB-435"}, "K562": {"tested_on": "K562"}, "NCI-H226": {"tested_on": "NCI-H226"}, "NCI-H460": {"tested_on": "NCI-H460"}, "HOP-62": {"tested_on": "HOP-62"}, "Malme-3M": {"tested_on": "Malme-3M"}, "NCI/ADR-RES": {"tested_on": "NCI/ADR-RES"}, "OVCAR-4": {"tested_on": "OVCAR-4"}, "HL-60": {"tested_on": "HL-60"}, "MCF7": {"tested_on": "MCF7"}, "LOX IMVI": {"tested_on": "LOX IMVI"}, "OVCAR-8": {"tested_on": "OVCAR-8"}, "SNB-75": {"tested_on": "SNB-75"}, "A549": {"tested_on": "A549"}, "SR": {"tested_on": "SR"}, "SK-MEL-2": {"tested_on": "SK-MEL-2"}, "ACHN": {"tested_on": "ACHN"}, "SF-539": {"tested_on": "SF-539"}, "HOP-92": {"tested_on": "HOP-92"}, "TK-10": {"tested_on": "TK-10"}, "M14": {"tested_on": "M14"}, "UACC-257": {"tested_on": "UACC-257"}, "CAKI-1": {"tested_on": "CAKI-1"}, "UACC-62": {"tested_on": "UACC-62"}, "SW-620": {"tested_on": "SW-620"}},
  "note": "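Compound exposure: 48 hours, 5 concentrations, 96-well plates. At the GI50, growth is halved.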 The source made the active and inactive calls. Rule as the data show it: active = GI50 up to about 1.1 µM and inactive = higher.",
  "data": [
    {"smiles": "CN(O)C(=O)CCCC(=O)NCC(C)(C)CNC(=O)CCCC(=O)N(C)O", "values": [
      {"measurement": "GI50", "setting": "HCC 2998", "result": "> 100 µM (inactive)"},
      {"measurement": "GI50", "setting": "NCI-H23", "result": "> 100 µM (inactive)"},
      {"measurement": "GI50", "setting": "CCRF-CEM", "result": "> 100 µM (inactive)"},
      {"measurement": "GI50", "setting": "RXF 393", "result": "> 100 µM (inactive)"},
      {"measurement": "GI50", "setting": "OVCAR-5", "result": "> 100 µM (inactive)"},
      {"measurement": "GI50", "setting": "SNB-19", "result": "> 100 µM (inactive)"},
      {"measurement": "GI50", "setting": "MDA-N", "result": "> 100 µM (inactive)"},
      {"measurement": "GI50", "setting": "IGROV-1", "result": "> 100 µM (inactive)"},
      {"measurement": "GI50", "setting": "KM12", "result": "> 100 µM (inactive)"},
      {"measurement": "GI50", "setting": "UO-31", "result": "> 100 µM (inactive)"},
      {"measurement": "GI50", "setting": "HT-29", "result": "> 100 µM (inactive)"},
      {"measurement": "GI50", "setting": "SF-268", "result": "> 100 µM (inactive)"},
      {"measurement": "GI50", "setting": "A498", "result": "> 100 µM (inactive)"},
      {"measurement": "GI50", "setting": "SF-295", "result": "> 100 µM (inactive)"},
      {"measurement": "GI50", "setting": "T47D", "result": "> 100 µM (inactive)"},
      {"measurement": "GI50", "setting": "OVCAR-3", "result": "> 100 µM (inactive)"},
      {"measurement": "GI50", "setting": "SK-MEL-5", "result": "> 100 µM (inactive)"},
      {"measurement": "GI50", "setting": "HCT-15", "result": "> 100", "unit": "µM"},
      {"measurement": "GI50", "setting": "COLO 205", "result": "> 100 µM (inactive)"},
      {"measurement": "GI50", "setting": "Hs-578T", "result": "> 100 µM (inactive)"},
      {"measurement": "GI50", "setting": "PC-3", "result": "> 100 µM (inactive)"},
      {"measurement": "GI50", "setting": "RPMI-8226", "result": "> 100 µM (inactive)"},
      {"measurement": "GI50", "setting": "SK-OV-3", "result": "> 100 µM (inactive)"},
      {"measurement": "GI50", "setting": "MOLT-4", "result": "> 100 µM (inactive)"},
      {"measurement": "GI50", "setting": "EKVX", "result": "> 100 µM (inactive)"},
      {"measurement": "GI50", "setting": "DU-145", "result": "> 100 µM (inactive)"},
      {"measurement": "GI50", "setting": "U-251", "result": "> 100 µM (inactive)"},
      {"measurement": "GI50", "setting": "MDA-MB-231", "result": "> 100 µM (inactive)"},
      {"measurement": "GI50", "setting": "MDA-MB-435", "result": "> 100 µM (inactive)"},
      {"measurement": "GI50", "setting": "K562", "result": "> 100 µM (inactive)"},
      {"measurement": "GI50", "setting": "NCI-H226", "result": "> 100 µM (inactive)"},
      {"measurement": "GI50", "setting": "NCI-H460", "result": "> 100 µM (inactive)"},
      {"measurement": "GI50", "setting": "HOP-62", "result": "> 100 µM (inactive)"},
      {"measurement": "GI50", "setting": "Malme-3M", "result": "> 100 µM (inactive)"},
      {"measurement": "GI50", "setting": "NCI/ADR-RES", "result": "> 100 µM (inactive)"},
      {"measurement": "GI50", "setting": "OVCAR-4", "result": "> 100 µM (inactive)"},
      {"measurement": "GI50", "setting": "HL-60", "result": "> 100 µM (inactive)"},
      {"measurement": "GI50", "setting": "MCF7", "result": "> 100 µM (inactive)"},
      {"measurement": "GI50", "setting": "LOX IMVI", "result": "> 100 µM (inactive)"},
      {"measurement": "GI50", "setting": "OVCAR-8", "result": "> 100 µM (inactive)"},
      {"measurement": "GI50", "setting": "SNB-75", "result": "> 100 µM (inactive)"},
      {"measurement": "GI50", "setting": "A549", "result": "> 100 µM (inactive)"},
      {"measurement": "GI50", "setting": "SR", "result": "> 100 µM (inactive)"},
      {"measurement": "GI50", "setting": "SK-MEL-2", "result": "> 100 µM (inactive)"},
      {"measurement": "GI50", "setting": "ACHN", "result": "> 100 µM (inactive)"},
      {"measurement": "GI50", "setting": "SF-539", "result": "> 100 µM (inactive)"},
      {"measurement": "GI50", "setting": "HOP-92", "result": "> 100 µM (inactive)"},
      {"measurement": "GI50", "setting": "TK-10", "result": "> 100 µM (inactive)"},
      {"measurement": "GI50", "setting": "M14", "result": "> 100 µM (inactive)"},
      {"measurement": "GI50", "setting": "UACC-257", "result": "> 100 µM (inactive)"},
      {"measurement": "GI50", "setting": "CAKI-1", "result": "> 100 µM (inactive)"},
      {"measurement": "GI50", "setting": "UACC-62", "result": "> 100 µM (inactive)"},
      {"measurement": "GI50", "setting": "SW-620", "result": "> 100 µM (inactive)"}
    ]}
  ]
}
